# System: Nav1.8-positive nociceptors
# Assay type: in vivo, mouse
# Settings: Nav1.8-TRAP after paclitaxel
smiles,measurement,value
CC(=O)O[C@H]1C(=O)[C@@]2(C)[C@H]([C@H](OC(=O)c3ccccc3)[C@]3(O)C[C@H](OC(=O)[C@H](O)[C@@H](NC(=O)c4ccccc4)c4ccccc4)C(C)=C1C3(C)C)[C@]1(OC(C)=O)CO[C@@H]1C[C@@H]2O [paclitaxel],Log2FC 0st4,1.718
same,Log2FC 2010107E04Rik,2.12
same,Log2FC 2310039H08Rik,5.143
same,Log2FC 2700094K13R1k,3.302
same,Log2FC 4833439L19R1k,2.132
same,Log2FC Aars2,2.418
same,Log2FC Acadvl,1.927
same,Log2FC Acap3,3.498
same,Log2FC Acp1,1.942
same,Log2FC Adamts8,3.561
same,Log2FC Adcy6,2.711
same,Log2FC Alkbh3,6.476
same,Log2FC Amacr,2.955
same,Log2FC Amd1,3.371
same,Log2FC Amer2,2.706
same,Log2FC Anapc13,3.575
same,Log2FC AngptI2,2.189
same,Log2FC Ankrd13b,2.385
same,Log2FC Anxa5,1.873
same,Log2FC Ap2m1,1.802
same,Log2FC Apip,3.746
same,Log2FC Arl3,1.891
same,Log2FC Arl6,2.816
same,Log2FC Arpc1b,2.309
same,Log2FC Asna1,2.939
same,Log2FC Atg4c,2.347
same,Log2FC Atp5c1,2.208
same,Log2FC Atp5j2,1.988
same,Log2FC Avpi1,2.241
same,Log2FC Bcl3,1.89
same,Log2FC Bloc1s1,1.944
same,Log2FC Btbd2,1.76
same,Log2FC C77080,2.169
same,Log2FC Calca,1.643
same,Log2FC Camk1,1.856
same,Log2FC Caml,1.865
same,Log2FC Card19,1.753
same,Log2FC Casp6,5.72
same,Log2FC Ccm2,1.643
same,Log2FC Cct3,1.638
same,Log2FC Cd1d1,3.345
same,Log2FC Cdc42ep3,3.249
same,Log2FC Cdpf1,1.815
same,Log2FC Cenpf,2.902
same,Log2FC Cfap206,3.055
same,Log2FC Cfd,2.201
same,Log2FC Chchd10,3.153
same,Log2FC Chp1,1.916
same,Log2FC Cisd2,2.375
same,Log2FC Cln5,3.447
same,Log2FC Cnih4,1.926
same,Log2FC Cnrip1,2.136
same,Log2FC Cntfr,2.495
same,Log2FC Coq3,4.105
same,Log2FC Cox6b1,1.818
same,Log2FC Cox7a2,2.17
same,Log2FC Cox7b,2.566
same,Log2FC Cox18,2.806
same,Log2FC Crlf2,3.214
same,Log2FC DIg2,2.734
same,Log2FC Dad1,2.457
same,Log2FC Ddt,1.823
same,Log2FC Ddx59,3.577
same,Log2FC Dhrs1,1.833
same,Log2FC Dnajb1,1.888
same,Log2FC Dnajc5,1.672
same,Log2FC Dnal4,3.156
same,Log2FC Dolk,3.023
same,Log2FC Dpm3,2.927
same,Log2FC Dzank1,2.226
same,Log2FC Edfl,2.362
same,Log2FC Efccl,3.201
same,Log2FC Eif3l,1.622
same,Log2FC Eif4a3,2.269
same,Log2FC Elk4,1.928
same,Log2FC Emd,2.135
same,Log2FC Endov,2.652
same,Log2FC Esd,1.658
same,Log2FC Esyt1,3.657
same,Log2FC Fabp7,2.365
same,Log2FC Fads3,2.619
same,Log2FC Fam89a,3.216
same,Log2FC Fam132a,3.453
same,Log2FC Fam172a,2.094
same,Log2FC Fam189b,1.8
same,Log2FC Fbxo2,2.965
same,Log2FC Fkbp1b,1.714
same,Log2FC Fm43b,4.132
same,Log2FC Fsd1,3.044
same,Log2FC Fxyd2,1.653
same,Log2FC Gdf1,2.419
same,Log2FC Gla,1.793
same,Log2FC Gm20721,2.093
same,Log2FC Gmppa,2.033
same,Log2FC Gpr75,3.81
same,Log2FC Gstm1,3.155
same,Log2FC H2-T23,3.904
same,Log2FC H2afj,2.76
same,Log2FC H2afz,1.717
same,Log2FC Hagh,3.067
same,Log2FC Hhatl,3.915
same,Log2FC Hist3h2ba,2.223
same,Log2FC Hspa8,1.666
same,Log2FC Idh3b,1.905
same,Log2FC Ift122,2.378
same,Log2FC Igtp,2.41
same,Log2FC Kcnip2,2.308
same,Log2FC Kcnip4,1.68
same,Log2FC Krt28,5.481
same,Log2FC L3mbt12,1.691
same,Log2FC Lamtor5,1.975
same,Log2FC Lcmt1,1.712
same,Log2FC Lingo2,2.247
same,Log2FC Litaf,2.888
same,Log2FC Lrrc55,5.433
same,Log2FC Lxn,2.119
same,Log2FC Lyrm2,2.832
same,Log2FC M pl36,2.805
same,Log2FC Mok,7.257
same,Log2FC Mpp4,3.465
same,Log2FC Mpv17,1.73
same,Log2FC Mrpl18,1.683
same,Log2FC Mrpl34,2.378
same,Log2FC Mrpl42,1.785
same,Log2FC Mrps36,2.585
same,Log2FC Mtor,1.973

# Reference: patent publication US20220226321A1, “INHIBITOR OF MNK FOR THE TREATMENT OF NEUROPATHIC PAIN” (Board of Regents, The University of Texas System, priority 2019, published 2022)
